Measured values from patent US11156623B2, “Methods of monitoring safety of quercetin compositions” (PUBLIC JOINT STOCK COMPANY “SCIENTIFIC INDUSTRIAL CENTRE …, priority 2018, dated 2021).
Converted amounts (≈) assume the structure as drawn. Read-outs that look alike come from different tables or passages of the source. Each block holds one molecule with its values, some of them ahead of it.

Key:
Daphnia magna [1] = experiment: Daphnia magna mobility assay; conditions: 48 h
Description: Toxicity is determined using a Daphnia magna mobility assay as described (Kamaya et al., 2005). Neonates (<24 h old) from 2-3-week-old mothers are placed in a 50 ml glass beaker containing 40 ml of a test solution. A sample of solid form quercetin (10%)/PVP (90%) composition containing 2,4,6-trihydroxybenzoic acid is resuspended and introduced at increasing dilutions. All experiments for exposure and controls without chemicals are made in four replicates and performed at 21±0.3° C. under 16 h light:8 h dark photoperiod. Immobility is used as the endpoint for determining acute toxicity; the daphnids showing no movement within 15 s after gentle stirring are defined to be immobile. After 24 and 48 h, the number of immobile daphnids is recorded to determine the concentration able to achieve 50% immobilization and it is indicated as EC50.

[2] = system: Pseudokirchneriella subcapitata
Daphnia magna [3] = conditions: cited from earlier work; for EC50 at 48 h: Daphnia magna mobility
[4] = human
Description: Potential human toxicity of 2,4,6-THBA can be related to its toxicity based on studies with Daphnia. Toxicity of various compounds in Daphnia (48 h immobilization test) correlated to toxicity in humans (determined as reference dose for human oral exposure, RfD) (Martins et al., 2007).

[5] = system: cyclin-dependent kinases CDK1, 2, 4, 6; conditions: purified CDKs in vitro; cited from earlier work
HCT-116 human cells = conditions: cited from earlier work
[6] = system: Pseudokirchneriella subcapitata; conditions: cited from earlier work
[7] = system: MDA-MB231 human breast cancer cells; experiment: Cell viability assay (CellTiter 96 AQueous One) in MDA-MB231; assay type: cell-based; conditions: MDA-MB-231, MDA-MB231, 72 h
Description: Toxicity of DB-DBA (2-(3,4-dihydroxybenzoyloxy)-4,6-dihydroxybenzoic acid) was assessed in 96-well plate (Thermo Fisher, Walthman, Mass.) on 1×10^3 MDA-MB231 human breast cancer cells/well. DB-DBA was diluted in to concentrations from 500 to 0 ug/ml. The plate was incubated at 37° C. for 72 h. Cell viability was measured in a CellTiter 96® AQueous One Solution Cell Proliferation Assay (Promega, Madison, Wis.), according to the manufacturer's protocol. The absorbance at 490 nm is determined spectrophotometrically and IC50 was calculated to be 75 microgram/ml.

[8] = system: retinal pigmented epithelial cells (ARPE-19); conditions: ARPE-19 normal cell line; cited from earlier work
[9] = system: human lymphoblastoid cell line K562; conditions: cited from earlier work
[10] = system: human lymphoblastoid TK6 cells; conditions: cited from earlier work
OVCAR3 human cell line = conditions: OVCAR3, 48 h; read-out: EC50, loss of viability; cited from earlier work
mice = conditions: cited from earlier work
[11] = system: HeLa, MCF7, HepG2, A549, LNCaP human cell lines; conditions: cited from earlier work
LNCaP human cell line = conditions: 48 h, read-out: EC50, loss of viability; cited from earlier work
[12] = cited from earlier work
[13] = humans, cited from earlier work
[14] = Storage stability: degradation products by liquid chromatography with UV detection; assay type: physicochemical
Description: (§1) Methods to detect PCA are known in the art, such as by liquid chromatography with UV detection. For example, a solution containing PCA is subjected to liquid chromatography using gradient elution with the following conditions: stainless steel column with stationary phase end-capped octadecylsilyl silica for chromatography R; size (150×3.9) mm, particle size 5 micron. Mobile phase A: 0.1% phosphoric acid v/v; mobile phase B—methanol; column temperature: 25° C.; flow rate: 1 mL/min.; UV detection at 254 nm. Relative retention time is 1.00 for quercetin, and 0.34 for PCA (FIG. 2). Content of PCA relative to quercetin can be calculated by formula (in percentage): […]
as §1, with “detect 2,4,6-THBA” for “detect PCA”, “containing 2,4,6-THBR” for “containing PCA”, “for 2,4,6-trihydroxybenzoic acid” for “for PCA”, “of 2,4,6-trihydroxybenzoic acid” for “of PCA”
Methods to detect DB-DBA are known in the art, such as by liquid chromatography with UV detection. For example, a solution containing DB-DBA is subjected to liquid chromatography using gradient elution with the following conditions: stainless steel column with stationary phase end-capped octadecylsilyl silica for chromatography R; size (150×3.9) mm, particle size 5 microns. Mobile phase A: 0.1% phosphoric acid v/v; mobile phase B—methanol; column temperature: 25° C.; flow rate: 1 mL/min.; UV detection at 254 nm. Relative retention time is 1.00 for quercetin, and 0.77 for DB-DBA (FIG. 15). Content of DB-DBA relative to quercetin can be calculated by formula (in percentage):
For test solution content of one vial with 70 ml of 96% ethanol was transferred to a 100 ml volumetric flask, diluted to 100 ml with the same solvent and mixed. For reference solution a, 1.0 ml of test solution was placed in a 100 ml volumetric flask, diluted to 100 ml with 96% ethanol and mixed. For reference solution b, 10.0 mg working standard of quercetin for system suitability (containing isorhamnetin and kaempferol, PJSC SIC “Borshchahivskiy CPP”, Kiev, Ukraine) was dissolved in 30 ml of 96% ethanol, diluted to 50 ml with the same solvent and mixed. Chromatography was performed on a using a Dionex UltiMate 3000 HPLC system (Thermo Fisher Scientific, Inc., Waltham, Mass.) with DAD and MS detectors (3200 QTRAP System (AB Sciex LLC, Framingham, Mass.)) connected consecutively using gradient elution with the following conditions: • stainless steel column with stationary phase end-capped octadecylsilyl silica for chromatography; size (150×3.9) mm, particle size 5 microns • Mobile phase A: 1.0 mL of phosphoric acid diluted to 1000 mL with water for chromatography, mixed and degassed; • Mobile phase B: methanol gradient grade; • Column temperature: 25° C. • Flow rate: 1 mL/min.; • Detection at 254 nm; • injection volume: 10 microL.
Inject test solution and reference solution (a). Peaks of quercetin and kaempferol as references were determined by relative retention times of 1.00 and 1.11
Vials containing (group 1) a lyophilized quercetin (10%)/PVP (90%) composition in an air atmosphere and (group 2) vials containing a lyophilized quercetin (10%)/PVP (90%) composition in a nitrogen gas atmosphere were stored at room temperature. Samples were obtained for each group at the indicated time points (0, 3, 6, 9, 12, 18, 24, and 36 months) and assayed for content of protocatechuic acid by chromatography as described above. Data from 3 independent experiments are shown. […]

[15] = 36 months storage at 20-25° C., air

SMILES: O=C(O)c1c(O)cc(O)cc1O [2,4,6-THBA, 2,4,6-trihydroxybenzoic acid]
toxicity relative to benzoic acid (Daphnia magna [1]): about 500 times | toxicity relative to benzoic acid and its other derivatives [2]: 70 times | LC50 in 48 h (Daphnia magna [3]; Daphna magna immobilization test): 1.7 µg/mL (≈ 9.99 µM) | EC50 at 48 h (Daphnia magna [3]): 1.7 µg/mL (≈ 9.99 µM) | RfD of 2,4,6-THBA relative to benzoic acid [4]: more than 50 times | RfD, estimated from Daphnia EC50 [4]: 0.02 mg/kg/day | toxicity of 2,4,6-THBA relative to quercetin [4]: 700 times | inhibitory effect on cyclin-dependent kinases CDK1, 2, 4, 6 [5]: strong inhibitory effect | cytotoxicity compared to other salicylic acid metabolites (HCT-116 human cells): more cytotoxic | EC50, suppression of growth [6]: 0.546 µg/mL

IC50 [7]: 75 µg/mL (≈ 245 µM)
SMILES: O=C(Oc1cc(O)cc(O)c1C(=O)O)c1ccc(O)c(O)c1 [DB-DBA, 2-(3,4-dihydroxybenzoyloxy)-4,6-dihydroxybenzoic acid]

SMILES: O=C(O)c1cc(O)c(O)c(OC(=O)c2cc(O)c(O)c(O)c2)c1 [DGA, digallic acid]
IC50, cytotoxicity [8]: 47 microgram/mil | concentrations causing DNA fragmentation [9]: 200-800 microgram/ml | IC50 by MTT assay ([10]; Bhouri et al., 2012a): 8.5 microgram/ml | concentrations causing DNA fragmentation, caspase-3/8 activation and PARP cleavage ([10]; TK6): 2.5-10 microgram/ml

SMILES: O=C(O)c1ccc(O)c(O)c1 [PCA, 3,4-dihydroxybenzoic acid]
EC50 (OVCAR3 human cell line): 5 µM | hepatotoxicity (increase in ALT) (mice; acute, 50 mg/kg intraperitoneally): the same effect | hepatotoxicity (increase in ALT) (mice; subchronic, 0.1% in drinking water for 60 days): causes hepatotoxicity | concentration causing apoptosis (DNA fragmentation, caspase 3 activation) [11]: 5 to 8 µM | EC50 (LNCaP human cell line): 5 µM

SMILES: O=C(O)c1ccccc1 [benzoic acid]
RfD / toxicity in humans [12]: 1 mg/kg/day | EC50 at 48 h (Daphnia magna [3]): 860 µg/mL (≈ 7040 µM) | EC50, suppression of growth [6]: 36 µg/mL

SMILES: O=c1c(O)c(-c2ccc(O)c(O)c2)oc2cc(O)cc(O)c12 [quercetin, 2-(3,4-dihydroxyphenyl)-3,5,7-trihydroxy-4H-chromen-4-one]
elimination half-life ([13]; after ingestion in foods or supplements): 1 to 2 h | bioavailability of quercetin [13]: 0-50% | RfD / toxicity in humans [12]: more than 15 mg/kg/day | decrease of 2,4,6-THBA concentration by air substitution with nitrogen gas [14]: 7 fold | protocatechuic acid accumulation ([14]; 3 months storage at 20-25° C., air): about 0.1 % (w/w) protocatechuic acid/quercetin | 2,4,6-THBA accumulation ([14]; 6 months storage at 20-25° C., air): about 0.1 % (w/w) 2,4,6-trihydroxybenzoic acid/quercetin | protocatechuic acid formation ([14]; 12 months storage, ambient conditions): above 0.4 % of quercetin content | 2,4,6-THBA formation ([14]; 24 months storage, ambient conditions, air): 0.33 % of quercetin content | 2,4,6-THBA accumulation [14, 15]: about 0.5 % 2,4,6-trihydroxybenzoic acid/quercetin | protocatechuic acid accumulation [14, 15]: about 0.9 % protocatechuic acid/quercetin | 2,4,6-THBA concentration relative to LC50 in 48 h Daphnia immobilization test (lower) ([14]; Daphnia): more than 3 times | 2,4,6-THBA concentration relative to LC50 in 48 h Daphnia immobilization test (higher) ([14]; Daphnia, 24 months): about 2 times | 2,4,6-THBA concentration ([14]; air substituted with nitrogen gas): 0.5 mg/L | 2,4,6-THBA formation ([14]; air substituted with nitrogen gas (FIG. 19)): 0.05% | rate of 2,4,6-THBA accumulation ([14]; room temperature, air): ~0.15 % of quercetin (w/w) per 12 months | rate of DB-DBA accumulation ([14]; room temperature, air): ~1.25 % of quercetin (w/w) per 12 months
